Measurements taken from paper PMC5318439, “The Novel Toll-Like Receptor 2 Agonist SUP3 Enhances Antigen Presentation and T Cell Activation by Dendritic Cells” (Frontiers in Immunology, 2017).
Where a SMILES comes first, the peptide text is derived from it. The star is where a group is joined. X1 = CCCCCCCCCCCCCCNC(=O)OC[C@H](C*)OC(=O)NCCCCCCCCCCCCCC; Palmitoyl = CCCCCCCCCCCCCCCC(=O)*

Assays:
[1] = Plasma stability; type: in vitro ADME; conditions: compared with Pam3, Figure S3B
Description: Pam3 is a lipopeptide and serves as a TLR2 agonist through binding to TLR2/TLR1 heterodimer. Although Pam3 is widely used as a TLR2 agonist, some intrinsic problems remain in detailed mechanism studies and drug development. The two ester groups of Pam3 can be easily hydrolyzed in plasma, and the hydroxyl group in serine could be readily oxidized in physiological conditions (Figure S1A in Supplementary Material). […] In addition, we displaced serine residue in Pam3 with glycine residue to eliminate this chiral center (Figures S1A,B in Supplementary Material). Since the third lysine residue in Pam3 is crucial for H bonding, we kept three lysine residues in the new molecule and removed the forth lysine residue to further reduce the molecular weight of the new TLR2 agonist, (2S,5S,8S,14R,18R)-2,5,8-tris(4-aminobutyl)-4,7,10,13,21-pentaoxo-14-palmitamido-18-((tetradecylcarbamoyl)oxy)-20-oxa-16-thia-3,6,9,12,22-pentaazahexatriacontan-1-oic acid. It is termed SUP3 (Figure 1A; Figures S1A,B in Supplementary Material). Chemical characterization of SUP3 by ^1H nuclear magnetic resonance and electrospray ionization mass spectrum analysis further confirm the structure (Figures S2A,B in Supplementary Material).

[2] = test system: CD11b^+ cDCs; assay: Antigen presentation by CD11b+ cDCs to OT-II CD4+ T cells in vitro; type: cell-based, mice; conditions: CD11b+ cDCs stimulated with 200 nM
Experimental: Antigen presentation assays were performed as previously described ([38]). Briefly, ovalbumin (OVA) (10 µg/mL; Sigma A7641) pulsed cDCs were stimulated with or without TLR agonists for 4 h. OT-I CD8^+ T cells and OT-II CD4^+ T cells were purified and then labeled by carboxyfluorescein diacetate succinimidyl ester (CFSE) (1 µM; Molecular Probes C34554). CD8^+ cDCs were cocultured with OT-I CD8^+ T cells for 60 h, whereas CD11b^+ cDCs were cocultured with OT-II CD4^+ T cells for 96 h, both in the presence of granulocyte-macrophage colony-stimulating factor (GM-CSF) (20 ng/mL; Peprotech 315-03). Proliferated OT-I or OT-II T cells were defined as diluted CFSE signal analyzed by flow cytometry. The numbers of T cells were counted by AccuCheck counting beads (Molecular Probes PCB100). […] Cells were washed twice with cold medium and analyzed by flow cytometry.
Figure 5 SUP3 enhanced antigen presentation ability of CD11b^+ conventional dendritic cells (cDCs) and production of antibodies against thymus-dependent (TD) antigens. […] Three days after immunization, division of OT-II CD4^+ T cells from inguinal lymph nodes were analyzed by flow cytometry (B). Absolute numbers of proliferated OT-II CD4^+ T cells were calculated in (C). […] Cells were then thoroughly washed and cocultured with CFSE-stained OT-II CD4^+ T cells for 4 days and analyzed by flow cytometry. […]

For `CCCCCCCCCCCCCCCC(=O)N[C@@H](CSC[C@@H](COC(=O)NCCCCCCCCCCCCCC)OC(=O)NCCCCCCCCCCCCCC)C(=O)NCC(=O)N[C@@H](CCCCN)C(=O)N[C@@H](CCCCN)C(=O)N[C@@H](CCCCN)C(=O)O` [SUP3, (2S,5S,8S,14R,18R)-2,5,8-tris(4-aminobutyl)-4,7,10,13,21-pentaoxo-14-palmitamido-18-((tetradecylcarbamoyl)oxy)-20-oxa-16-thia-3,6,9,12,22-pentaazahexatriacontan-1-oic acid] (Palmitoyl-C(X1)GKKK-OH), the plasma stability [1] was “much higher than Pam3” and the “OT-II CD4+ T cell proliferation in vitro” value [2] was “enhanced OT-II CD4^+ T cell proliferation”.
